The numbers were not newly measured in patent publication US6736837B2, “Method for inducing hypothermia for treating neurological disorders” (priority 1997, dated 2004), which cites them from elsewhere.

Each structure is given as a SMILES string. Like-named read-outs stand apart in the source and are kept apart here.

In this data set the test system is tumors. As to conditions: for effect on tumor size: same dose.

`O=c1[nH]cc(F)c(=O)[nH]1` [5-FU, 5-fluoruracil]: where the note is “hamsters, 50 mg/kg, during hypothermia with the tumors maintained at normal body temperature”, the effect on tumors result is “regression and disappearance of tumors”. Besides, the “effect on tumor size” value reads like this: (hypothermic animals whose tumors were also hypothermic) “did not affect tumor size”; (tumor-bearing animals that were not made hypothermic) “did not affect tumor size”.
